Results taken from ChEMBL document CHEMBL1139430, “Synthesis of a natural product-inspired eight-membered ring lactam library via ring-closing metathesis” (Bioorg Med Chem Lett, 2008).

Experiments:
[1] = system: HL-60; assay: Antiproliferative activity against human HL60 cells at 62.5 to 156.25 uM at day 4 by MTS/PMS assay; format: functional
[2] = system: L1210; assay: Antiproliferative activity against mouse L1210 cells at day 4 by MTS/PMS assay; format: functional, cell-based; conditions: L1210, 96 h
[3] = system: HL-60; assay: Antiproliferative activity against human HL60 cells at day 4 by MTS/PMS assay; format: functional, cell-based; conditions: HL-60, 96 h
[4] = Antiproliferative activity against mouse Pan02 cells at day 4 by MTS/PMS assay; format: functional, cell-based; conditions: Pan02, 96 h

IC50 [2] | IC50 [3] | SMILES | inhibition (INH) [1] | IC50 [4]
15.4 µM | – | COc1ccc([C@H]2/C=C\C[C@H](NS(=O)(=O)c3cccc4cccnc34)CC(=O)N2Cc2ccc(F)cc2)cc1 | <50% | –
25.2 µM | 40.1 µM | COc1ccc(C(=O)N[C@H]2C/C=C\[C@H](c3ccc(OC)cc3)N(Cc3ccc(F)cc3)C(=O)C2)cc1 (relative stereo) | – | 34.9 µM
37.9 µM | – | CCCCS(=O)(=O)N[C@H]1C/C=C\[C@H](c2ccc(OC)cc2)N(Cc2ccc(F)cc2)C(=O)C1 (relative stereo) | <50% | –
11 µM | – | COc1ccc([C@H]2/C=C\C[C@H](NS(=O)(=O)c3ccc(C)cc3)CC(=O)N2Cc2ccc(F)cc2)cc1 (relative stereo) | <50% | –
27.1 µM | 54.7 µM | COc1ccc([C@H]2/C=C\C[C@H](NC(=O)c3ccccc3)CC(=O)N2Cc2ccc(F)cc2)cc1 (relative stereo) | – | 40.6 µM
40.1 µM | – | COc1ccc([C@H]2/C=C\C[C@H](NC(=O)C3CCCC3)CC(=O)N2Cc2ccc(F)cc2)cc1 (relative stereo) | <50% | –
8.5 µM | – | COc1ccc([C@H]2/C=C\C[C@H](NS(=O)(=O)c3ccc4ccccc4c3)CC(=O)N2Cc2ccc(F)cc2)cc1 (relative stereo) | <50% | –
